Here are results for one substance from patent US8911995B2, “Culture system and method for immunogenicity and immunofunction testing in vitro” (ProBioGen AG, priority 2007, dated 2014).

This assay relates to human PBMC. Put plainly: Cytokine profile of matrix-embedded, perfused PBMC cultures in device 1 (multiplex bead array). In kind it is cell-based. The method, then: Cryopreserved human PBMC, isolated from whole blood by ficoll density gradient centrifugation, were revitalised using standard protocols. The cell concentration was adjusted to 3 E8 viable cells per mL in X-Vivo 15 cell culture media (Lonza, Basel, Switzerland) supplemented with 5 mg/mL agarose type VII (made from 50 mg/mL 37° C. liquid solution, Sigma-Aldrich, St. Louis, Mo.), 2.5 μg/mL fibronectin (human, Sigma-Aldrich, St. Louis, Mo.) and 1× penicillin/streptomycin solution (100×, Invitrogen, Carlsbad, Calif.).
The device was made of a 1 mm PC plate housing the culture compartment, feeding and draining canals (see FIGS. 1 and 1A). The plate was covered with a 1 mm PC plate on top were the luer connectors were attached and a gas permeable membrane (Biofoil25, Greiner bio-one, Kremsmünster, Germany) at the bottom of the plate for optimal gas supply of the culture. The culture compartment of this special embodiment of device 1 has a volume of 160 μL. The device was incubated in a humidified incubator (37° C./5% carbon dioxide).
Three culture compartments of the device, further illustrated in FIG. 1A, were filled with cell suspension in liquid agarose media avoiding air bubbles (4,8 E7 viable PBMC/compartment). The whole culture device was cooled down to 4° C. for 5 min in order to let the matrix gel. Subsequently the surrounding fluidic system was prefilled with X-Vivo 15 cell culture media and was applied to the luer connectors of the culture device. A flow rate of 13.1 μL/h was set up using a peristaltic media pump.
Samples were taken every day and immediately frozen down to −20° C. for subsequent cytokine analyses using multiplex bead array technology (Luminex, Austin, Tex.).
After the second sample was taken 24 hours after innoculation, 100 μL OKT-3 antibody (100 ng/mL solution in X-Vivo 15, Ortho Biotech, Bridgewater, N.J.) were administered via an injection site in the fluidic system. 5 days after inoculation the last sample was taken and viability of the cultures was checked with acridine orange (1 μg/mL, Sigma, St. Louis, […].) and ethidium bromide (4 μg/mL, Sigma, St. Louis, […].).
The experiment was conducted as described in example 1. PBMCs were derived from a differed donor and cells were subsequently cultured in RPMI 1640 (Invitrogen, Carlsbad, Calif.) supplemented with 10% FCS (Biochrom, Berlin, Germany) and 1× penicillin/streptomycin solution (100×, Invitrogen, Carlsbad, Calif.). As described previously, the culture compartment of culture device 1 (see FIGS. 1 and 1A) was filled with liquid agarose-media (RPMI 1640 10% FCS cell culture media supplemented with 5 mg/mL agarose type VII (from 50 mg/mL 37° C. liquid solution, Sigma-Aldrich, St. Louis, Mo.), 2.5 μg/mL fibronectin (human, Sigma-Aldrich, St. Louis, Mo.) and 1× penicillin/streptomycin solution (100×, Invitrogen, Carlsbad, Calif.) and cells (4,8 E7 PBMC/compartment). After pre-incubation for 24 hours with a constant perfusion rate of 13.1 μL culture media, 100 μL of a 100 ng/mL OKT-3 solution was administered. Samples were taken every 24 hours and frozen down to −20° C. before the cytokine levels were determined.

Where [1] appears, read: Example 1, X-Vivo 15 medium, 100 μL of 100 ng/mL OKT-3.
Setting [2] is: Example 2, different donor, RPMI 1640 10% FCS, 100 μL of 100 ng/mL OKT-3.

As to Muromonab-CD3 [OKT-3], under setting [1], the IFN-gamma release entry is reported as “released”, the IL-5 level result was “raises initially” and the TNF-alpha release entry is on record as “released”. The IL-2 release result (Example 1, X-Vivo 15 medium, 24 hours after administration of 100 μL of 100 ng/mL OKT-3) is listed as “massive IL-2 burst”. In addition, where the note is “Example 1, X-Vivo 15 medium, after 72 hours”, the “IL-2 level after the initial burst” value was “declined”. Under setting [2], the IFN-gamma level result is given as “only raise slightly”, the IL-2 release entry is given as “massive IL-2 release”, the IL-5 level result is reported as “raises initially” and the TNF-alpha level result is “only raise slightly”.
